Results on 23 molecules are retold here after patent US20250066351A1, “PYRAZOLO[1,5-A]PYRIDIN-2,3-YL AMIDES AS KV7 CHANNEL ACTIVATORS” (Biohaven Therapeutics Ltd., priority 2022, published 2025).

Each structure is given as a SMILES string.

For this assay, the target named is T1, hKv7.2/7.3 (Homo sapiens, UniProt O43525+O43526).
T1 construct: host or cells: HEK cells, tetracycline-inducible expression
The experiment in a line: Kv7.2/7.3 Activation Assay, QPatch planar patch-clamp single concentration screen. It counts as cell-based. The note with it: increase in current over baseline, Kv7.2/Kv7.3 co-expressing HEK cells, compound concentration 3 μM, steady-state current at end of 2 s pulse to −30 mV. On the procedure: The ability of compounds to potentiate K-currents in Kv7.2/7.3 containing HEK cells was assessed using planar patch-clamp on the QPatch automated screening platform.
Cell Line: The hKv7.2/7.3 cell line was obtained from Chantest (Cleveland, OH 44128) cat. #CT6147. These HEK cells will express the Kv7.2/7.3 ion channels when induced.
Cell Culture: Cells were maintained in a media containing DMEM/F12; 50/50 (GIBCO cat. #11330), 10% Fetal Bovine Serum (FBS) (GIBCO cat. #26140), 100 units/mL Penicillin-Streptomycin (GIBCO cat. #15140), 0.005 mg/mL Blasticidin (INVIVOGEN cat. #ant-bl-1), 0.5 mg/mL Geneticin (GIBCO cat. #10131), 0.1 mg/mL Zeocin (GIBCO cat. #R25001). Cells used in the electrophysiology assay were maintained in a media without Blasticidin, Geneticin and Zeocin for 2 days and channel expression was induced by adding tetracycline (BIOLINE cat. #BIO-87030) at a final concentration of […]. Cells were grown in T-175 flask to ˜75% confluency. Currents were recorded 24 hours after channel induction.
Compound Plates: Test compounds were prepared by performing serial dilutions on a Biomek NX^P (BECKMAN COULTER). Final dilutions were made in external recording solution with a final DMSO concentration of 0.1% DMSO. For single concentration screens each plate had 10 μM retigabine as a positive control and 0.1% DMSO as a negative control.
Electrophysiology: On the day of the experiment cells were washed with Hank's Balanced Salt Solution (HBBS) (GIBCO cat. #14175) and harvested with Tryple (GIBCO cat. #12604). Cells were then centrifuged at 2000 rpm for 5 minutes and resuspended in CHO—S-SFM (GIBCO cat. #12052) at […]. Cells were stirred for 30 minutes before experiments were started. External recording solution contained (in mM): NaCl (145), KCl (4), CaCl2 (2), MgCl2 (1), HEPES (10) and Glucose (10); pH was adjusted to 7.4 with NaOH and the osmolarity was adjusted to 300-305 mOsM with sucrose if necessary. Internal solution contained (in mM): KCl (125), KF (10), EGTA (5), Na2ATP (5), MgCl2 (3.2), HEPES (5); pH was adjusted to 7.2 with KOH and the osmolarity was adjusted to 298-302 mOsM with sucrose.
Potassium channel activity was measured on the QPatch HTX (Sophion Bioscience) using QPlates with 48-wells/plate. Each cell was taken as an independent experiment and only one compound was tested per well. Potassium channel activity was elicited by holding at −80 mV and stepping to −30 mV for 2 s followed by a 100 ms pulse to −120 mV.
Single concentration screen: Baseline conditions were obtained by recording 5 sweeps in the external solution only, this was repeated for three applications of the external solution. The effect of test compounds on elicited current was then assessed by recording 5 sweeps in the presence of a 3 μM compound solution. The steady-state current at the end of the 2 s pulse to −30 mV was measured to determine the fold increase from baseline.
Regarding `C[C@@](O)(CC(=O)Nc1nn2ccc(C(F)(F)F)cc2c1C1CCC1)c1ccccc1` [Example 34, (R)-N-(3-cyclobutyl-5-(trifluoromethyl)pyrazolo [1,5-a]pyridin-2-yl)-3-hydroxy-3-phenylbutanamide], the “QPatch Kv7.2/7.3 Activity” value is “− (<1.2-fold (−))”.
For the molecule `C[C@@](O)(CC(=O)Nc1nn2ccc(C(F)(F)F)cc2c1C1CCC1)c1ccccn1` [Example 35, (R)-N-(3-cyclobutyl-5-(trifluoromethyl)pyrazolo [1,5-a]pyridin-2-yl)-3-hydroxy-3-(pyridin-2-yl)butanamide], the “QPatch Kv7.2/7.3 Activity” value is reported as “+ (2.0-3.99 (+))”.
The result for `C[C@@](O)(CC(=O)Nc1nn2ccc(C#N)cc2c1C1CCC1)c1ccccn1` [Example 36, (R)-N-(5-cyano-3-cyclobutylpyrazolo[1,5-a]pyridin-2-yl)-3-hydroxy-3-(pyridin-2-yl)butanamide] reads “+ (2.0-3.99 (+))”.
As to `C[C@@](O)(CC(=O)Nc1nn2ccc(C(F)(F)F)cc2c1-c1ccc(F)cc1)c1ccccn1` [Example 37, (R)-N-(3-(4-fluorophenyl)-5-(trifluoromethyl)pyrazolo [1,5-a]pyridin-2-yl)-3-hydroxy-3-(pyridin-2-yl)butanamide], the “QPatch Kv7.2/7.3 Activity” value is “++ (4.0-5.99 (++))”.
As for `C[C@@](O)(CC(=O)Nc1nn2ccc(C(F)(F)F)cc2c1-c1ccccc1)c1ccccn1` [Example 38, (R)-3-hydroxy-N-(3-phenyl-5-(trifluoromethyl)pyrazolo [1,5-a]pyridin-2-yl)-3-(pyridin-2-yl)butanamide], the entry is “++ (4.0-5.99 (++))”.
The result for `C[C@@](O)(CC(=O)Nc1nn2ccc(C(F)(F)F)cc2c1-c1cccc(F)c1)c1ccccn1` [Example 39, (R)-N-(3-(3-fluorophenyl)-5-(trifluoromethyl)pyrazolo [1,5-a]pyridin-2-yl)-3-hydroxy-3-(pyridin-2-yl)butanamide] reads “+ (2.0-3.99 (+))”.
As for `Cc1ccc(-c2c(NC(=O)C[C@@](C)(O)c3ccccn3)nn3ccc(C(F)(F)F)cc23)cc1` [Example 40, (R)-3-hydroxy-3-(pyridin-2-yl)-N-(3-(p-tolyl)-5-(trifluoromethyl)pyrazolo[1,5-a]pyridin-2-yl)butanamide], the entry is “+ (2.0-3.99 (+))”.
Turning to `C[C@](O)(CC(=O)Nc1nn2ccc(C(F)(F)F)cc2c1C1CCC1)c1ccccn1` [Example 41, (S)-N-(3-cyclobutyl-5-(trifluoromethyl)pyrazolo [1,5-a]pyridin-2-yl)-3-hydroxy-3-(pyridin-2-yl)butanamide], the “QPatch Kv7.2/7.3 Activity” value is given as “++ (4.0-5.99 (++))”.
On to `C[C@](O)(CC(=O)Nc1nn2ccc(C(F)(F)F)cc2c1-c1ccc(F)cc1)c1ccccn1` [Example 42, (S)-N-(3-(4-fluorophenyl)-5-(trifluoromethyl)pyrazolo [1,5-a]pyridin-2-yl)-3-hydroxy-3-(pyridin-2-yl)butanamide], for which the “QPatch Kv7.2/7.3 Activity” value was “+ (2.0-3.99 (+))”.
As for `C[C@](O)(CC(=O)Nc1nn2ccc(C#N)cc2c1C1CCC1)c1ccccn1` [Example 43, (S)-N-(5-cyano-3-cyclobutylpyrazolo[1,5-a]pyridin-2-yl)-3-hydroxy-3-(pyridin-2-yl)butanamide], the entry is “+ (2.0-3.99 (+))”.
As for `CC(C)(O)CC(=O)Nc1nn2ccc(C(F)(F)F)cc2c1-c1ccc(Cl)s1` [Example 44, N-(3-(5-chlorothiophen-2-yl)-5-(trifluoromethyl)pyrazolo [1,5-a]pyridin-2-yl)-3-hydroxy-3-methylbutanamide], the entry is “+ (2.0-3.99 (+))”.
For `CC(C)(O)CC(=O)Nc1nn2ccc(C(F)(F)F)cc2c1-c1ccc(Cl)nc1` [Example 45, N-(3-(6-chloropyridin-3-yl)-5-(trifluoromethyl)pyrazolo [1,5-a]pyridin-2-yl)-3-hydroxy-3-methylbutanamide], the “QPatch Kv7.2/7.3 Activity” value is “+/− (1.2-1.99-fold (+/−))”.
The result for `CC(C)(O)CC(=O)Nc1nn2ccc(C(F)(F)F)cc2c1-c1ccccc1F` [Example 46, N-(3-(2-fluorophenyl)-5-(trifluoromethyl)pyrazolo [1,5-a]pyridin-2-yl)-3-hydroxy-3-methylbutanamide] reads “+/− (1.2-1.99-fold (+/−))”.
The result for `Cc1cccc(-c2c(NC(=O)CC(C)(C)O)nn3ccc(C(F)(F)F)cc23)c1` [Example 47, 3-hydroxy-3-methyl-N-(3-(m-tolyl)-5-(trifluoromethyl)pyrazolo [1,5-a]pyridin-2-yl)butanamide] reads “+ (2.0-3.99 (+))”; that for `CC(C)(O)CC(=O)Nc1nn2ccc(C(F)(F)F)cc2c1-c1cccc(Cl)c1` [Example 48, N-(3-(3-chlorophenyl)-5-(trifluoromethyl)pyrazolo [1,5-a]pyridin-2-yl)-3-hydroxy-3-methylbutanamide], “+ (2.0-3.99 (+))”.
As for `CC(C)(O)CC(=O)Nc1nn2ccc(C(F)(F)F)cc2c1-c1ccc(OC(F)(F)F)cc1` [Example 49, 3-hydroxy-3-methyl-N-(3-(4-(trifluoromethoxy)phenyl)-5-(trifluoromethyl)pyrazolo [1,5-a]pyridin-2-yl)butanamide], the entry is “+ (2.0-3.99 (+))”; as for `CC(C)(O)CC(=O)Nc1nn2ccc(C(F)(F)F)cc2c1-c1ccc(C(F)(F)F)cc1` [Example 50, 3-hydroxy-3-methyl-N-(5-(trifluoromethyl)-3-(4-(trifluoromethyl)phenyl)pyrazolo [1,5-a]pyridin-2-yl)butanamide], “+ (2.0-3.99 (+))”; as for `Cc1ccccc1-c1c(NC(=O)CC(C)(C)O)nn2ccc(C(F)(F)F)cc12` [Example 51, 3-hydroxy-3-methyl-N-(3-(o-tolyl)-5-(trifluoromethyl)pyrazolo [1,5-a]pyridin-2-yl)butanamide], “+/− (1.2-1.99-fold (+/−))”.
As to `Cn1cc(-c2c(NC(=O)CC(C)(C)O)nn3ccc(C(F)(F)F)cc23)cn1` [Example 52, 3-hydroxy-3-methyl-N-(3-(1-methyl-1H-pyrazol-4-yl)-5-(trifluoromethyl)pyrazolo [1,5-a]pyridin-2-yl)butanamide], the “QPatch Kv7.2/7.3 Activity” value was “− (<1.2-fold (−))”.
Consider `CC(C)(O)CC(=O)Nc1nn2ccc(Cl)cc2c1C1CCC1` [Example 53, N-(5-chloro-3-cyclobutylpyrazolo[1,5-a]pyridin-2-yl)-3-hydroxy-3-methylbutanamide], for which the “QPatch Kv7.2/7.3 Activity” value is recorded as “+ (2.0-3.99 (+))”.
For `Cn1cc(-c2c(NC(=O)CC(C)(C)O)nn3ccc(C(F)(F)F)cc23)nn1` [Example 54, 3-hydroxy-3-methyl-N-(3-(1-methyl-1H-1,2,3-triazol-4-yl)-5-(trifluoromethyl)pyrazolo [1,5-a]pyridin-2-yl)butanamide], the “QPatch Kv7.2/7.3 Activity” value was “− (<1.2-fold (−))”.
For the molecule `CC(C)(O)CC(=O)Nc1nn2ccc(C(F)(F)F)cc2c1-c1ccc(F)c(F)c1` [Example 55, N-(3-(3,4-difluorophenyl)-5-(trifluoromethyl)pyrazolo [1,5-a]pyridin-2-yl)-3-hydroxy-3-methylbutanamide], the “QPatch Kv7.2/7.3 Activity” value is reported as “+ (2.0-3.99 (+))”.
The result for `CC(C)(O)CC(=O)Nc1nn2ccc(C(F)(F)F)cc2c1-c1cc(F)cc(F)c1` [Example 56, N-(3-(3,5-difluorophenyl)-5-(trifluoromethyl)pyrazolo [1,5-a]pyridin-2-yl)-3-hydroxy-3-methylbutanamide] reads “+ (2.0-3.99 (+))”.
